For data set [1], the target named is wild-type Choristoneura fumiferana EcR (D, E and F domains) (Choristoneura fumiferana, UniProt O77240). In kind it is cell-based. The note with it: WT-CtEcR, 3T3 Cells; for RMFI (relative maximum fold induction): relative to GS-E ligand. How it is done: (§1) Cellular gene switch assays were performed by transiently transfecting the following constructs in mouse embryonic fibroblast cells (NIH3T3). The wild-type D, E and F domains from Choristoneura fumiferana EcR or its V390I/Y410E/E274V mutant were fused to GAL4-DBD and placed under the control of the CMV promoter in the pBIND vector (Promega Corporation, Madison, Wis., USA). The DEF domains of EcRs shown were amplified using primers designed based on 20-25 nt sequences at the 5′ and 3′ ends. Restriction enzyme sites EcoR I/BamH I and Xba I were added to 5′ and 3′ primers respectively. The PCR products were digested with appropriate restriction enzymes and cloned into pBIND vector. The EcR LBDs cloned into pBIND vector were verified by sequencing. A chimeric RXR from Homo sapiens RXRP and Locusta migratoria RXR, fused to VP16-AD and placed under the control of an SV40e promoter, was constructed as previously described (Kumar P & Katakam A in Gene Transfer, Friedmann T and Rossi J, eds, pp. 643-651 (2007), Cold Spring Harbor Laboratory Press, Cold Spring Harbor, N.Y.). The inducible luciferase reporter plasmid pFRLuc (Stratagene Cloning Systems, La Jolla, Calif., USA), contains five copies of the GAL4 response element and a synthetic minimal promoter.
(§2) NIH3T3 cells were maintained at 37′C and 5% CO2 in Dulbecco's modified Eagle's medium (DMEM) supplemented with 10% bovine calf serum, both obtained from Mediatech Inc., Manassas, Va. Cells were planted in a 96-well plate at a density of 2,500 cells/well in 50 μL of growth medium. The following day cells were first treated with 35 μL of serum-free DMEM containing dimethyl sulfoxide (DMSO; control) or a DMSO solution containing ligand. Cells were then transfected with 15 μl of serum-free DMEM containing 0.04 μg of EcR construct, 0.04 ug of RXR construct, and 0.16 μg of luciferase reporter construct per well, using SuperFect™ transfection reagent (Qiagen Inc., Valencia, Calif., USA) according to the manufacturer's instructions. Ligands were tested at 8 doses from 0.01-33 μM and the final DMSO concentration was 0.33% in both control and treatment wells. After a 48 hour post-treatment and transfection incubation, the cells were assayed for luciferase activity using the Bright-Glo™ Luciferase Assay System (Promega Corporation, Madison, Wis., USA) following the manufacturer's instructions. EC50 values were measured minimally in duplicate.
(§3) Luciferase reporter gene expression was measured 48 h after cell treatment using Bright-Glo™ Luciferase Assay System from Promega (E2650). Luminescence was detected at room temperature using a Dynex MLX microtiter plate luminometer.
(§4) Each assay was conducted in two separate wells, and the two values were averaged. Fold inductions were calculated by dividing relative light units (“RLU”) in ligand treated cells with RLU in DMSO treated cells. EC50s were calculated from dose response data using a three-parameter logistic model. Relative Max FI was determined as the maximum fold induction of the tested ligand (an embodiment of the invention) observed at any concentration relative to the maximum fold induction of GS™-E ligand (3,5-dimethyl-benzoic acid N-tert-butyl-N′-(2-ethyl-3-methoxy-benzoyl)-hydrazide) observed at any concentration.

Data set [2] concerns the target T1, [V390I/Y410E/E274V]-CfEcR (Choristoneura fumiferana, UniProt O77240).
T1 construct: assay construct b835
In kind it is cell-based. The note with it: 3T3 Cells; for RMFI (relative maximum fold induction): relative to GS-E ligand. The procedure: as §1, §2, §3, §4

The source of these data is patent publication US20200270225A1, “Chiral Diacylhydrazine Ligands for Modulating the Expression of Exogenous Genes via an Ecdysone Receptor Complex” (Intrexon Corporation, priority 2007, published 2020).

Like-named read-outs stand apart in the source and are kept apart here. Some results are limits rather than exact numbers.

In the case of `CCCC(N(NC(=O)c1cccc(Cl)c1)C(=O)c1cc(C)cc(C)c1)C(C)(C)C` (racemic) [rac-10], the 50% effective concentration (EC50) (usually the concentration giving half of the maximal effect) in data set [1] (rac, read-out: EC50) was ~100 nM; in data set [2] (rac, read-out: EC50), 23.9 nM. For the same molecule, the “RMFI (relative maximum fold induction)” value in data set [1] (rac) worked out at 0.50; in data set [2] (rac), 0.86.

Turning to `CCCC(N(NC(=O)c1cccc(OC)c1CC)C(=O)c1cc(C)cc(C)c1)C(C)(C)C` (racemic) [rac-2], the half-maximal effective concentration (EC50) in data set [1] (rac, read-out: EC50) is ~100 nM; in data set [2] (rac, read-out: EC50), 3.9 nM. For the same molecule, the “RMFI (relative maximum fold induction)” value is 0.60 in data set [1] (rac) and 0.85 in data set [2] (rac).

Take `CCCC(N(NC(=O)c1cc(OC)c(C)c(OC)c1)C(=O)c1cc(C)cc(C)c1)C(C)(C)C` (racemic) [rac-19]: the EC50 is > 10000 nM in data set [1] (rac, read-out: EC50) and 3930 nM in data set [2] (rac, read-out: EC50). Besides, the “RMFI (relative maximum fold induction)” value in data set [2] (rac) is listed as 0.15.

`CCC[C@H](N(NC(=O)c1cccs1)C(=O)c1cc(C)cc(C)c1)C(C)(C)C` [Example 43, (S)-3,5-Dimethyl-benzoic acid N-(1-tert-butyl-butyl)-N′-(thiophene-2-carbonyl)-hydrazide]: in data set [1] (S), the EC50 was ~10000 nM and the “RMFI (relative maximum fold induction)” value worked out at 0.07. For the same molecule, in data set [2] (S), it took 1060 nM to reach a half-maximal effect (EC50) and the “RMFI (relative maximum fold induction)” value came to 0.52.

On to `C=CC[C@H](C1CCCCC1)N(NC(=O)c1cccc(OC)c1C)C(=O)c1cc(C)cc(C)c1` [Example 60, (R)-3,5-Dimethyl-benzoic acid N-(1-cyclohexyl-but-3-enyl)-N′-(3-methoxy-2-methyl-benzoyl)-hydrazide], for which, in data set [1] (R), the concentration giving a half-maximal response (EC50) is ~2000 nM and the “RMFI (relative maximum fold induction)” value is given as 0.62. Besides, in data set [2] (R), the response was half-maximal at 746 nM (EC50) and the “RMFI (relative maximum fold induction)” value is on record as 0.78.

For the molecule `CCCC(N(NC(=O)c1c(F)cccc1F)C(=O)c1cc(C)cc(C)c1)C(C)(C)C` (racemic) [rac-15], the 50% effective concentration (EC50) was 94 nM in data set [1] (rac, read-out: EC50) and ~1 nM in data set [2] (rac, read-out: EC50). Also, the “RMFI (relative maximum fold induction)” value in data set [1] (rac) was determined as 0.68; in data set [2] (rac), 0.92.

On to `CCCC(N(NC(=O)c1ccc(OC)c(OC)c1)C(=O)c1cc(C)cc(C)c1)C(C)(C)C` (racemic) [rac-17], for which the EC50 in data set [1] (rac, read-out: EC50) is 4130 nM; in data set [2] (rac, read-out: EC50), 720 nM. Also, the “RMFI (relative maximum fold induction)” value in data set [1] (rac) came out at 0.25; in data set [2] (rac), 0.51.

`CCC[C@@H](N(NC(=O)c1cccnc1Cl)C(=O)c1cc(C)cc(C)c1)C(C)(C)C` [Example 27, (R)-3,5-Dimethyl-benzoic acid N-(1-tert-butyl-butyl)-N′-(2-chloro-pyridine-3-carbonyl)-hydrazide]: in data set [1] (R), the midpoint of the response, the EC50, lay at 95.2 nM and the “RMFI (relative maximum fold induction)” value turned out to be 0.70. Moreover, in data set [2] (R), a half-maximal effect (EC50) was put at 7 nM and the “RMFI (relative maximum fold induction)” value was 0.73.

`CCCC(N(NC(=O)c1cccc(OC)c1)C(=O)c1cc(C)cc(C)c1)C(C)(C)C` (racemic) [rac-9]: the half-maximal effective concentration (EC50) in data set [1] (rac, read-out: EC50) is 304 nM; in data set [2] (rac, read-out: EC50) it was 7.1 nM. In addition, the figures for the “RMFI (relative maximum fold induction)” value in data set [1] (rac) and in data set [2] (rac) were 0.84 and 0.63, respectively.

Take `CCCC(N(NC(=O)c1cc(F)cc(F)c1)C(=O)c1cc(C)cc(C)c1)C(C)(C)C` (racemic) [rac-18]: the EC50 is 30.5 nM in data set [1] (rac, read-out: EC50) and ~3 nM in data set [2] (rac, read-out: EC50). Also, the entries for the “RMFI (relative maximum fold induction)” value in data set [1] (rac) and in data set [2] (rac) were 0.26 and 1.00, respectively.

For `CCCC(N(NC(=O)c1ccccc1Cl)C(=O)c1cc(C)cc(C)c1)C(C)(C)C` (racemic) [rac-6], the EC50 in data set [1] (rac, read-out: EC50) is 59 nM; in data set [2] (rac, read-out: EC50) it was 1.2 nM. The “RMFI (relative maximum fold induction)” value was 0.72 in data set [1] (rac) and 0.95 in data set [2] (rac).

For the molecule `CCCC(N(NC(=O)c1ccc(OC)cc1)C(=O)c1cc(C)cc(C)c1)C(C)(C)C` (racemic) [rac-13], the concentration giving a half-maximal response (EC50) in data set [1] (rac, read-out: EC50) is ~100 nM; in data set [2] (rac, read-out: EC50) it was ~5 nM. Besides, the results for the “RMFI (relative maximum fold induction)” value in data set [1] (rac) and in data set [2] (rac) were 0.54 and 0.71, respectively.

Consider `CCC[C@H](N(NC(=O)c1c(F)cccc1F)C(=O)c1cc(C)cc(C)c1)C(C)(C)C` [Example 40, (S)-3,5-Dimethyl-benzoic acid N-(1-tert-butyl-butyl)-N′-(2,6-difluoro-benzoyl)-hydrazide], for which, in data set [1] (S), the EC50 was ~1000 nM and the “RMFI (relative maximum fold induction)” value was determined as 0.39. In data set [2] (S), the EC50 is ~20 nM and the “RMFI (relative maximum fold induction)” value was found to be 0.69.

For `CCC[C@@H](N(NC(=O)c1cc(C)oc1C)C(=O)c1cc(C)cc(C)c1)C(C)(C)C` [Example 26, (R)-3,5-Dimethyl-benzoic acid N-(1-tert-butyl-butyl)-N′-(2,5-dimethyl-furan-3-carbonyl)-hydrazide], in data set [1] (R), the EC50 is ~1000 nM and the “RMFI (relative maximum fold induction)” value is given as 1.16. Also, in data set [2] (R), the midpoint of the response, the EC50, lay at 99.4 nM and the “RMFI (relative maximum fold induction)” value was 0.95.

As for `CCC[C@@H](C1CCCCC1)N(NC(=O)c1ccccc1)C(=O)c1cc(C)cc(C)c1` [Example 57, (S)-3,5-Dimethyl-benzoic acid N′-benzoyl-N-(1-cyclohexyl-butyl)-hydrazide], in data set [1] (S), the concentration giving a half-maximal response (EC50) amounted to 2750 nM and the “RMFI (relative maximum fold induction)” value turned out to be 0.32. In data set [2] (S), the EC50 was 769 nM and the “RMFI (relative maximum fold induction)” value is given as 0.50.

On to `C=CCC(C1CCCCC1)N(NC(=O)c1cccc(OC)c1C)C(=O)c1cc(OC)c(C)c(OC)c1` (racemic) [rac-61], for which the EC50 in data set [1] (rac, read-out: EC50) was ~3300 nM; in data set [2] (rac, read-out: EC50) it was 521 nM. Further, the “RMFI (relative maximum fold induction)” value stood at 0.31 in data set [1] (rac) and 0.39 in data set [2] (rac).

For the molecule `CCC[C@@H](N(NC(=O)c1cccc(OC)c1C)C(=O)c1cc(OC)c(C)c(OC)c1)C(C)(C)C` [Example 51, (R)-3,5-Dimethoxy-4-methyl-benzoic acid N-(1-tert-butyl-butyl)-N′-(3-methoxy-2-methyl-benzoyl)-hydrazide], in data set [1] (R), the concentration for a half-maximal effect (EC50) was ~70 nM and the “RMFI (relative maximum fold induction)” value is reported as 1.00. In data set [2] (R), the concentration for a half-maximal effect (EC50) was determined as 0.56 nM and the “RMFI (relative maximum fold induction)” value turned out to be 0.81.

In the case of `CCC[C@H](N(NC(=O)c1ccccc1C)C(=O)c1cc(C)cc(C)c1)C(C)(C)C` [Example 33, (S)-3,5-Dimethyl-benzoic acid N-(1-tert-butyl-butyl)-N′-(2-methyl-benzoyl)-hydrazide], the half-maximal effective concentration (EC50) in data set [1] (S) is ~3300 nM; in data set [2] (S), ~400 nM. Moreover, the “RMFI (relative maximum fold induction)” value in data set [1] (S) was 0.20; in data set [2] (S) it was 0.48.

With `CCCC(N(NC(=O)c1cccc(OC)c1C)C(=O)c1cc(OC)c(C)c(OC)c1)C(C)(C)C` (racemic) [rac-51], the EC50 in data set [1] (rac, read-out: EC50) worked out at 80.2 nM; in data set [2] (rac, read-out: EC50), 15 nM. Further, the “RMFI (relative maximum fold induction)” value in data set [1] (rac) amounted to 0.82; in data set [2] (rac), 0.81.

Regarding `CCC[C@@H](C1CCCCC1)N(NC(=O)c1cccc(OC)c1CC)C(=O)c1cc(C)cc(C)c1` [Example 56, (S)-3,5-Dimethyl-benzoic acid N-(1-cyclohexyl-butyl)-N′-(2-ethyl-3-methoxy-benzoyl)-hydrazide], the EC50 in data set [1] (S) came to 159 nM; in data set [2] (S), 107 nM. Besides, the entries for the “RMFI (relative maximum fold induction)” value in data set [1] (S) and in data set [2] (S) were 0.37 and 0.52, respectively.

`CCCC(N(NC(=O)c1ccc(Cl)cc1)C(=O)c1cc(C)cc(C)c1)C(C)(C)C` (racemic) [rac-14]: the EC50 in data set [1] (rac, read-out: EC50) was ~200 nM; in data set [2] (rac, read-out: EC50) it was ~20 nM. The results for the “RMFI (relative maximum fold induction)” value in data set [1] (rac) and in data set [2] (rac) were 0.46 and 0.83, respectively.
